# From publication PMC8466300, “Investigating the Central Nervous System Disposition of Actinomycin D: Implementation and Evaluation of Cerebral Microdialysis and Brain Tissue Measurements Supported by UPLC-MS/MS Quantification” (Pharmaceutics, 2021)
# Test: Reverse-phase UPLC retention relative to actinomycin D
# Assay type: physicochemical
# Details: Peptide BEH C18 300 Å, gradient 40–100% ACN + 0.1% FA, 60 °C
# Procedure: The injected sample volume was 20 µL.
# For chromatography optimization we tested reverse phase columns (C18 and C4) due to actinomycin D´s high lipophilicity. We used reverse phase material with a large pore width of 300 Å because large pore widths usually foster optimal mass transfer kinetics for macromolecules. Chromatographic peak shape and separation performed better on the C18 column. In accordance with the high lipophilicity of actinomycin D, a gradient from 40–100% eluent B was found optimal and yielded peaks with a width at baseline of 6 s (Figure 2).
row,Substance,shift in reverse-phase retention relative to actinomycin D
1,7-amino actinomycin D,large hydrophilic shift in retention time
2,Actinomycin C,only a minimal lipophilic shift
